Our source for the Activity and inhibition values is ChEMBL document CHEMBL1221220, “Transport and signaling via the amino acid binding site of the yeast Gap1 amino acid transceptor” (Nat Chem Biol, 2009).

Positions count from the first letter of the chain named. The source made the active and inactive calls. The rule behind the calls is not given here.

The subject of assay [1] is T1, General amino-acid permease GAP1 (Saccharomyces cerevisiae), P19145 [T400C].
T1 sequence (whole entry): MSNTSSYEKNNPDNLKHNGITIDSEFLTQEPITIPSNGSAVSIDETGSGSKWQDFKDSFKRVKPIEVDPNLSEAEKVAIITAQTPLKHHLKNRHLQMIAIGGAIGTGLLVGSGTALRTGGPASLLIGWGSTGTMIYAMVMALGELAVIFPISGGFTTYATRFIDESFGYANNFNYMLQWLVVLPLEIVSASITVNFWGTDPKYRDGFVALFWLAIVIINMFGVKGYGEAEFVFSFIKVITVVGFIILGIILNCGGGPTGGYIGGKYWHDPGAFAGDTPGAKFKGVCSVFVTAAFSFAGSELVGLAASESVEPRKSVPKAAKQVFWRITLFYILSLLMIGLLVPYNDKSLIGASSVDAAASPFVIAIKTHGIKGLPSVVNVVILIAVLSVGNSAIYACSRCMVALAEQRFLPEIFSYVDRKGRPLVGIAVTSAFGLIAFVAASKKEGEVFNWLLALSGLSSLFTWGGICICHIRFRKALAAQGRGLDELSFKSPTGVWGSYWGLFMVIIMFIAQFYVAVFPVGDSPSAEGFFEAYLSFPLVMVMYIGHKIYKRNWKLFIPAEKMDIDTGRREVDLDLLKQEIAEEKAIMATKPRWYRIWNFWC
Kind of assay: Induction of yeast Gap1 T400C mutant-mediated amino acid uptake at 2 mM in presence of 10 mM MTSEA treated before compound addition.

Assay [2] concerns General amino-acid permease GAP1 (Saccharomyces cerevisiae), P19145 [V402C]. As to the kind of experiment: Inhibition of yeast Gap1 V402C mutant-mediated trehalose activation at 10 mM.
Chain of General amino-acid permease GAP1 (Saccharomyces cerevisiae), P19145 [V402C] (P19145 whole entry V402C): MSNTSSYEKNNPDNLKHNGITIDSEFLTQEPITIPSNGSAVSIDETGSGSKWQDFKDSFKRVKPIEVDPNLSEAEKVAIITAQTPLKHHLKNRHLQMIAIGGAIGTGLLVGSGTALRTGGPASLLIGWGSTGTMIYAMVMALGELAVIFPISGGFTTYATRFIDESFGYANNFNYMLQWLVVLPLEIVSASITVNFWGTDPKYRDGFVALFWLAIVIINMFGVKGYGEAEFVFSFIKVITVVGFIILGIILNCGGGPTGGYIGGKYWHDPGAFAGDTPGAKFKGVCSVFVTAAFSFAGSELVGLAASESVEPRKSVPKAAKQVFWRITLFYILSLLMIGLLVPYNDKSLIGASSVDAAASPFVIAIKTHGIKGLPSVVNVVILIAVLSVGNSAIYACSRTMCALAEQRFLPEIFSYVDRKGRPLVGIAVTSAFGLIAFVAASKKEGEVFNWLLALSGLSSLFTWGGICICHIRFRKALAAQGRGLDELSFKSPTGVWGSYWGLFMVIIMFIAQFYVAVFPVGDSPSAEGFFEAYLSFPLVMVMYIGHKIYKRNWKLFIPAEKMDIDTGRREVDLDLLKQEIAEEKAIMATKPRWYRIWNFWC
Assay [3] deals with T2, General amino-acid permease GAP1 (Saccharomyces cerevisiae), P19145 [A393C].
T2 sequence (whole entry): T1 sequence (whole entry) with A393C, C400T
As to the kind of experiment: Induction of yeast Gap1 A393C mutant-mediated amino acid uptake at 2 mM in presence of 10 mM MTSEA treated before compound addition.

Assay [4] deals with General amino-acid permease GAP1 (Saccharomyces cerevisiae), P19145 [V389C]. Kind of assay: Induction of yeast Gap1 V389C mutant-mediated amino acid uptake at 2 mM in presence of 10 mM MTSEA treated before compound addition.
Chain of General amino-acid permease GAP1 (Saccharomyces cerevisiae), P19145 [V389C] (P19145 whole entry V389C): as the sequence (P19145 whole entry V402C) above, with V389C, C402V counted along it
The test system of assay [5] is T3, General amino-acid permease GAP1 (Saccharomyces cerevisiae), P19145 [C397C].
T3 sequence (whole entry): T1 sequence (whole entry) with C400T
Kind of assay: Induction of yeast Gap1 C397C mutant-mediated […] activation at 2 mM in presence of 10 mM MTSEA treated before compound addition.

Assay [6] deals with T1, General amino-acid permease GAP1 (Saccharomyces cerevisiae), P19145 [T400C]. Kind of assay: Activation of yeast Gap1 T400C mutant-mediated amino acid uptake at 10 mM.
Assay [7] concerns T4, General amino-acid permease GAP1 (Saccharomyces cerevisiae), P19145 [R399C].
T4 sequence (whole entry): T1 sequence (whole entry) with R399C, C400T
As to the kind of experiment: Induction of yeast Gap1 R399C mutant-mediated trehalose activation at 2 mM in presence of 10 mM MTSEA treated before compound addition.

As to `NC(=O)NCCC[C@H](N)C(=O)O`, the result in assay [1] and in assay [3] was Active. The inhibition result in assay [2], in assay [5] and in assay [7] was “Active” each time. Further, in assay [4], the inhibition result was “inactive”. Further, the result in assay [6] was inactive.
